Laboratory results reported in PubChem BioAssay AID256 (DTP/NCI, 2004).
Where “and” joins values, the source holds several entries; their conditions need not be identical. Equal entries are not always repeated. Toxic doses and inconclusive results are not listed.

Test system: CD2F1 mice, L1210 leukemia ip, survival T/C
Assay: NCI In Vivo Anticancer Drug Screen. Data for tumor model L1210 Leukemia (intraperitoneal) in CD2F1 (CDF1) mice
Conditions: higher = longer survival
How it was run: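 Each value reflects a quotient of treated over vehicle control outcomes in mice with a transplanted tumor.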

[1] = endpoint: mean survival time, dose: 100.0 mg/kg/injection, schedule: Q01DX001 (ip), vehicle: saline with Tween-80
[2] = endpoint: mean survival time, dose: 200.0 mg/kg/injection, schedule: Q01DX001 (ip), vehicle: saline with Tween-80
[3] = endpoint: mean survival time, dose: 400.0 mg/kg/injection, schedule: Q01DX001 (ip), vehicle: saline with Tween-80
[4] = endpoint: mean survival time, dose: 100.0 mg/kg/injection, schedule: Q04DX003 (ip), vehicle: saline with Tween-80
[5] = endpoint: mean survival time, dose: 200.0 mg/kg/injection, schedule: Q04DX003 (ip), vehicle: saline with Tween-80
[6] = endpoint: mean survival time, dose: 400.0 mg/kg/injection, schedule: Q04DX003 (ip), vehicle: saline with Tween-80
[7] = endpoint: mean survival time, dose: 50.0 mg/kg/injection, schedule: Q01DX009 (ip), vehicle: saline with Tween-80
[8] = endpoint: mean survival time, dose: 100.0 mg/kg/injection, schedule: Q01DX009 (ip), vehicle: saline with Tween-80
[9] = endpoint: mean survival time, dose: 100.0 mg/kg/injection, schedule: Q04DX003 (ip), vehicle: saline
[10] = endpoint: mean survival time, dose: 200.0 mg/kg/injection, schedule: Q04DX003 (ip), vehicle: saline
[11] = endpoint: mean survival time, dose: 400.0 mg/kg/injection, schedule: Q04DX003 (ip), vehicle: saline
[12] = endpoint: mean survival time, dose: 100.0 mg/kg/injection, schedule: Q01DX001 (ip), vehicle: saline
[13] = endpoint: mean survival time, dose: 200.0 mg/kg/injection, schedule: Q01DX001 (ip), vehicle: saline
[14] = endpoint: mean survival time, dose: 400.0 mg/kg/injection, schedule: Q01DX001 (ip), vehicle: saline
[15] = endpoint: mean survival time, dose: 50.0 mg/kg/injection, schedule: Q04DX002 (ip), vehicle: saline with Tween-80

## O=C(NO)c1cc(O)c(O)c(O)c1
endpoint: mean survival time, dose: 100.0 mg/kg/injection, schedule: Q01DX009 (ip), vehicle: water
  T/C: 117 % of control
endpoint: mean survival time, dose: 200.0 mg/kg/injection, schedule: Q01DX009 (ip), vehicle: distilled water + Tween-80
  T/C: 154 % of control
endpoint: mean survival time, dose: 200.0 mg/kg/injection, schedule: Q01DX009 (ip), vehicle: water
  T/C: 156 % of control
endpoint: mean survival time, dose: 400.0 mg/kg/injection, schedule: Q01DX009 (ip), vehicle: distilled water + Tween-80
  T/C: 104 % of control
endpoint: mean survival time, dose: 400.0 mg/kg/injection, schedule: Q01DX009 (ip), vehicle: water
  T/C: 100 % of control
endpoint: mean survival time, dose: 800.0 mg/kg/injection, schedule: Q01DX009 (ip), vehicle: distilled water + Tween-80
  T/C: 116 % of control
endpoint: median survival time, dose: 25.0 mg/kg/injection, schedule: Q01DX009 (ip), vehicle: distilled water + Tween-80
  T/C: 107 % of control
endpoint: median survival time, dose: 50.0 mg/kg/injection, schedule: Q01DX009 (ip), vehicle: distilled water + Tween-80
  T/C: 120 % of control
endpoint: median survival time, dose: 200.0 mg/kg/injection, schedule: Q01DX009 (ip), vehicle: distilled water + Tween-80
  T/C: 158 % of control and 162 % of control
endpoint: median survival time, dose: 400.0 mg/kg/injection, schedule: Q01DX009 (ip), vehicle: distilled water + Tween-80
  T/C: 90 % of control

## c1ccc2[nH]c(CN(CCN(Cc3nc4ccccc4[nH]3)Cc3nc4ccccc4[nH]3)Cc3nc4ccccc4[nH]3)nc2c1
endpoint: median survival time, dose: 3.12 mg/kg/injection, schedule: Q01DX005 (ip), vehicle: DMSO
  T/C: 100 % of control
endpoint: median survival time, dose: 6.25 mg/kg/injection, schedule: Q01DX005 (ip), vehicle: DMSO
  T/C: 100 % of control

## O=NN(CCBr)C(=O)Nc1ccccc1
endpoint: mean survival time, dose: 9.0 mg/kg/injection, schedule: Q01DX Z (ip), vehicle: carboxymethylcellulose (CMC)
  T/C: 150 % of control
endpoint: mean survival time, dose: 18.0 mg/kg/injection, schedule: Q01DX Z (ip), vehicle: carboxymethylcellulose (CMC)
  T/C: 162 % of control
endpoint: mean survival time, dose: 25.0 mg/kg/injection, schedule: Q01DX Z (ip), vehicle: carboxymethylcellulose (CMC)
  T/C: 158 % of control
endpoint: mean survival time, dose: 37.0 mg/kg/injection, schedule: Q01DX Z (ip), vehicle: carboxymethylcellulose (CMC)
  T/C: 183 % of control
endpoint: mean survival time, dose: 75.0 mg/kg/injection, schedule: Q01DX Z (ip), vehicle: carboxymethylcellulose (CMC)
  T/C: 115 % of control
endpoint: mean survival time, dose: 100.0 mg/kg/injection, schedule: Q01DX Z (ip), vehicle: carboxymethylcellulose (CMC)
  T/C: 103 % of control
endpoint: mean survival time, dose: 150.0 mg/kg/injection, schedule: Q01DX Z (ip), vehicle: carboxymethylcellulose (CMC)
  T/C: 90 % of control

## CCCCCCCCCCCCCCCCCOc1c(I)cc(I)cc1I
[1]
  T/C: 86 % of control
[2]
  T/C: 94 % of control
[3]
  T/C: 91 % of control

## COc1ccc(OC)c(/C=C/c2ccc3ccccc3[n+]2C)c1
endpoint: mean survival time, dose: 5.0 mg/kg/injection, schedule: Q01DX009 (ip), vehicle: saline with Tween-80
  T/C: 98 % of control
endpoint: mean survival time, dose: 10.0 mg/kg/injection, schedule: Q01DX009 (ip), vehicle: saline with Tween-80
  T/C: 88 % of control

## Cc1ccc2nc(-c3ccccc3N)[nH]c2c1
[4]
  T/C: 87 % of control
[5]
  T/C: 92 % of control
[6]
  T/C: 89 % of control

## CCOC(=O)/C=C/C1CCCCC1
[7]
  T/C: 96 % of control
[8]
  T/C: 104 % of control
endpoint: mean survival time, dose: 200.0 mg/kg/injection, schedule: Q01DX009 (ip), vehicle: saline with Tween-80
  T/C: 96 % of control

## CN(C)C(=NC#N)N(C)C
endpoint: mean survival time, dose: 100.0 mg/kg/injection, schedule: Q01DX009 (ip), vehicle: saline
  T/C: 102 % of control
[9]
  T/C: 100 % of control
endpoint: mean survival time, dose: 200.0 mg/kg/injection, schedule: Q01DX009 (ip), vehicle: saline
  T/C: 96 % of control
[10]
  T/C: 95 % of control
endpoint: mean survival time, dose: 400.0 mg/kg/injection, schedule: Q01DX009 (ip), vehicle: saline
  T/C: 96 % of control
[11]
  T/C: 97 % of control

## CS(=O)(=O)OCCN(CCOS(C)(=O)=O)c1cccc(Cl)c1
endpoint: mean survival time, dose: 2.0 mg/kg/injection, schedule: Q01DX010 (ip), vehicle: saline
  T/C: 112 % of control
endpoint: mean survival time, dose: 4.0 mg/kg/injection, schedule: Q01DX010 (ip), vehicle: saline
  T/C: 112 % of control
endpoint: mean survival time, dose: 4.0 mg/kg/injection, schedule: Q01DX015 (ip), vehicle: saline
  T/C: 116 % of control
endpoint: mean survival time, dose: 8.0 mg/kg/injection, schedule: Q01DX010 (ip), vehicle: saline
  T/C: 150 % of control
endpoint: mean survival time, dose: 8.0 mg/kg/injection, schedule: Q01DX015 (ip), vehicle: saline
  T/C: 119 % of control

## CCCN(CCC)S(=O)(=O)c1ccc(NC(=O)OC2CCC3(C)C(=CCC4C3CCC3(C)C(C(C)CCCC(C)C)CCC43)C2)cc1 (stereo unspecified)
endpoint: mean survival time, dose: 100.0 mg/kg/injection, schedule: Q01DX001 (sc), vehicle: steriod suspending solution
  T/C: 105 % of control
endpoint: mean survival time, dose: 200.0 mg/kg/injection, schedule: Q01DX001 (sc), vehicle: steriod suspending solution
  T/C: 97 % of control
endpoint: mean survival time, dose: 400.0 mg/kg/injection, schedule: Q01DX001 (sc), vehicle: steriod suspending solution
  T/C: 101 % of control

## CC(C)(C)[Si](OP(=O)(O[Si](c1ccccc1)(c1ccccc1)C(C)(C)C)N(CCCl)CCCl)(c1ccccc1)c1ccccc1
endpoint: mean survival time, dose: 15.63 mg/kg/injection, schedule: Q01DX001 (ip), vehicle: distilled water + Tween-80
  T/C: 101 % of control
endpoint: mean survival time, dose: 31.25 mg/kg/injection, schedule: Q01DX001 (ip), vehicle: distilled water + Tween-80
  T/C: 95 % of control
endpoint: mean survival time, dose: 62.5 mg/kg/injection, schedule: Q01DX001 (ip), vehicle: distilled water + Tween-80
  T/C: 101 % of control
endpoint: mean survival time, dose: 125.0 mg/kg/injection, schedule: Q01DX001 (ip), vehicle: distilled water + Tween-80
  T/C: 98 % of control
endpoint: mean survival time, dose: 250.0 mg/kg/injection, schedule: Q01DX001 (ip), vehicle: distilled water + Tween-80
  T/C: 92 % of control
endpoint: mean survival time, dose: 500.0 mg/kg/injection, schedule: Q01DX001 (ip), vehicle: distilled water + Tween-80
  T/C: 103 % of control

## C(=C\c1nnnn1C12CC3CC(CC(C3)C1)C2)/c1ccccc1
[12]
  T/C: 104 % of control
[13]
  T/C: 104 % of control
[14]
  T/C: 96 % of control

## COc1ccccc1N=Nc1c(O)n(-c2ccccc2OC)c(=S)n(-c2ccccc2OC)c1=O
[15]
  T/C: 98 % of control
[1]
  T/C: 93 % of control
endpoint: mean survival time, dose: 100.0 mg/kg/injection, schedule: Q04DX002 (ip), vehicle: saline with Tween-80
  T/C: 94 % of control
[2]
  T/C: 94 % of control
endpoint: mean survival time, dose: 200.0 mg/kg/injection, schedule: Q04DX002 (ip), vehicle: saline with Tween-80
  T/C: 102 % of control

## O=C(O)CC(C(=O)O)=C(c1ccccc1)c1ccccc1
[12]
  T/C: 98 % of control
[13]
  T/C: 95 % of control
[14]
  T/C: 101 % of control

## CCC(CNCCCCCC(=O)O)(C(=O)O)C(=O)O
endpoint: mean survival time, dose: 12.5 mg/kg/injection, schedule: Q04DX002 (ip), vehicle: saline with Tween-80
  T/C: 90 % of control
endpoint: mean survival time, dose: 25.0 mg/kg/injection, schedule: Q04DX002 (ip), vehicle: saline with Tween-80
  T/C: 98 % of control
[15]
  T/C: 94 % of control

## O=C(Nc1ccccc1)Nc1nnnc2ccccc12
[4]
  T/C: 101 % of control
[5]
  T/C: 90 % of control
[6]
  T/C: 101 % of control

## O=C(O)CNC1CCCC1
[1]
  T/C: 97 % of control
[2]
  T/C: 100 % of control
[3]
  T/C: 93 % of control

## NCCSC1(O)C(=O)c2ccccc2-c2ccccc21 (stereo unspecified)
endpoint: mean survival time, dose: 37.5 mg/kg/injection, schedule: Q01DX009 (ip), vehicle: saline
  T/C: 100 % of control
endpoint: mean survival time, dose: 75.0 mg/kg/injection, schedule: Q01DX009 (ip), vehicle: saline
  T/C: 101 % of control
endpoint: mean survival time, dose: 150.0 mg/kg/injection, schedule: Q01DX009 (ip), vehicle: saline
  T/C: 91 % of control

## CC1CC([O-])=N/[N+]1=C\c1ccccc1 (stereo unspecified)
[9]
  T/C: 101 % of control
[10]
  T/C: 96 % of control
[11]
  T/C: 94 % of control

## CN(C)CCNC(=O)C(c1ccccc1)c1ccccc1
[4]
  T/C: 104 % of control

## CCN(CC)C(=O)c1cc[n+](Cc2ccc(Cl)c(Cl)c2)cc1
[7]
  T/C: 102 % of control
[8]
  T/C: 105 % of control
[4]
  T/C: 100 % of control
[5]
  T/C: 102 % of control

## N#Cc1cn(C2OC(CO)C(O)C2O)c2ncnc(NC(=O)c3ccccc3)c12 (stereo unspecified)
endpoint: mean survival time, dose: 0.78 mg/kg/injection, schedule: Q01DX001 (ip), vehicle: suspension in saline
  T/C: 95 % of control
endpoint: mean survival time, dose: 1.56 mg/kg/injection, schedule: Q01DX001 (ip), vehicle: suspension in saline
  T/C: 106 % of control
endpoint: mean survival time, dose: 3.13 mg/kg/injection, schedule: Q01DX001 (ip), vehicle: suspension in saline
  T/C: 110 % of control
endpoint: mean survival time, dose: 6.25 mg/kg/injection, schedule: Q01DX001 (ip), vehicle: suspension in saline
  T/C: 108 % of control
endpoint: mean survival time, dose: 12.5 mg/kg/injection, schedule: Q01DX001 (ip), vehicle: suspension in saline
  T/C: 111 % of control
